From patent US20050009894A1 (Aventis Pharma S.A., priority 2001, published 2005)

Molecular target: T1, human KDR enzyme (Homo sapiens, UniProt P35968)
T1 construct: The cytoplasmic domain of human KDR enzyme is cloned in the form of a GST fusion; GST; made in house; host or cells: SF21 insect cells (baculovirus, pFastBac)
Experiment: Phosphorylation of the substrate PLCγ by the enzyme KDR in vitro (flashplate technique)
Format: biochemical
Conditions: Table VII, degrees of activity by IC50 range; read-out: Activity
Experimental: The inhibitory effect of the compounds is determined in a test of phosphorylation of a substrate by the enzyme KDR in vitro by the flasplate technique (96-well plate, NEN). The cytoplasmic domain of human KDR enzyme is cloned in the form of a GST fusion into the baculovirus expression vector pFastBac. The protein is expressed in the SF21 cells and purified to about 60% homogeneity.
The kinase activity of KDR is measured in 20 mM MOPS, 10 mM MgCl2, 10 mM MnCl2, 1 mM DTT, 2.5 mM EGTA, 10 mM β-glycerophosphate, pH 7.2 in the presence of 10 mM MgCl2, 100 μM Na3VO4, 1 mM NaF. 10 μl of the compound are added to 70 μl of kinase buffer containing 100 ng of KDR enzyme at 4° C. The reaction is initiated by adding 20 μl of solution containing 2 μg of substrate (fragment SH2-SH3 of PLCγ expressed in the form of a GST fusion protein), 2 μCi γ33P[ATP] and 2 μM cold ATP. After incubating for 1 h at 37° C., the reaction is quenched by adding 1 volume (100 μl) of 200 mM EDTA. The incubation buffer is removed and the wells are washed three times with 300 μl of PBS. The radioactivity is measured in each well using a Top Count NXT instrument (Packard).
Background noise is determined by measuring the radio-activity in wells in quadruplet containing radioactive ATP and the substrate alone.
An activity control is measured in wells in quadruplet containing all the reagents (γ33P-[ATP], KDR and the substrate PLCγ) and in the absence of compound.
The inhibition of the KDR activity with the compound of the invention is expressed as a percentage of inhibition of the control activity determined in the absence of compound.
The compound SU5614 (Calbiochem) (1 μM) is included in each plate as inhibition control.
The IC50 values for the compounds are calculated by plotting the dose-response curves. The IC50 corresponds to the concentration of compound that induces a 50% inhibition of the kinase activity.

T1 sequence (P35968 786-1356 limits assumed): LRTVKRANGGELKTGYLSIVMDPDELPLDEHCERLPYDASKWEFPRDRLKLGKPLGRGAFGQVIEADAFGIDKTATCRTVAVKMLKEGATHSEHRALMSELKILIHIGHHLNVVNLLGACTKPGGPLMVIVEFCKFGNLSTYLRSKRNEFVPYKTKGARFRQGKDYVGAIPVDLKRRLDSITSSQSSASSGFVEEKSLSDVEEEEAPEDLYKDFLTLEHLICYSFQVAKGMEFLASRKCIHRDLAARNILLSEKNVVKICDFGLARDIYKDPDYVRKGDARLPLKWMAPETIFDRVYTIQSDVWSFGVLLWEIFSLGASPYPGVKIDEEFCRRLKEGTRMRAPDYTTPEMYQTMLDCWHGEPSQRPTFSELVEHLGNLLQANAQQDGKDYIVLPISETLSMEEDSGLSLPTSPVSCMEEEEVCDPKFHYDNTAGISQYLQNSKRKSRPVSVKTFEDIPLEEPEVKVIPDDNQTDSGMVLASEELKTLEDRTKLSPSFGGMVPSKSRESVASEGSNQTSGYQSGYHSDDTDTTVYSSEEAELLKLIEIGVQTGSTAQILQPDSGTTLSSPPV

Row | IC50 [nM] | SMILES
1 | 300 to 3000 | COc1cccc(CNC(=O)c2ccc3[nH]c(-c4n[nH]c5ccccc45)nc3c2)c1 [Example 40, 2-(1H-Indazol-3-yl)-1H-benzoimidazole-5-carboxylic acid 3-methoxy-benzylamide]
2 | 300 to 3000 | O=C(NCc1ccccc1OC(F)(F)F)c1ccc2[nH]c(-c3n[nH]c4ccccc34)nc2c1 [Example 44, 2-(1H-Indazol-3-yl)-1H-benzoimidazole-5-carboxylic acid 2-trifluoromethoxy-benzylamide]
3 | 300 to 3000 | O=C(NCc1cccc(OC(F)(F)F)c1)c1ccc2[nH]c(-c3n[nH]c4ccccc34)nc2c1 [Example 49, 2-(1H-Indazol-3-yl)-1H-benzoimidazole-5-carboxylic acid 3-trifluoromethoxy-benzylamide]
4 | 300 to 3000 | CC(C)OCCCNC(=O)c1ccc2[nH]c(-c3n[nH]c4ccccc34)nc2c1 [Example 50, 2-(1H-Indazol-3-yl)-1H-benzoimidazole-5-carboxylic acid (3-isopropoxy-propyl)-amide]
5 | 300 to 3000 | Cc1cc(CNC(=O)c2ccc3[nH]c(-c4n[nH]c5ccccc45)nc3c2)c(C)o1 [Example 53, 2-(1H-Indazol-3-yl)-1H-benzoimidazole-5-carboxylic acid (2,5-dimethyl-furan-3-ylmethyl)-amide]

The next lines start with the molecule.

Row | SMILES | IC50 [nM]
6 | O=C(NCc1ccc2c(c1)OCO2)c1ccc2[nH]c(-c3n[nH]c4ccccc34)nc2c1 [Example 41, 2-(1H-Indazol-3-yl)-1H-benzoimidazole-5-carboxylic acid (benzo[1,3]dioxole-5-ylmethyl)-amide] | 300 to 3000
7 | O=C(NCc1csc2ccccc12)c1ccc2[nH]c(-c3n[nH]c4ccccc34)nc2c1 [Example 42, 2-(1H-Indazol-3-yl)-1H-benzoimidazole-5-carboxylic acid (benzo[b]thiophen-3-ylmethyl)-amide] | 300 to 3000
8 | Cc1nn(C)cc1CNC(=O)c1ccc2[nH]c(-c3n[nH]c4ccccc34)nc2c1 [Example 43, 2-(1H-Indazol-3-yl)-1H-benzoimidazole-5-carboxylic acid (1,3-dimethyl-1H-pyrazol-4-ylmethyl)-amide] | 300 to 3000
9 | Cc1ccccc1CNC(=O)c1ccc2[nH]c(-c3n[nH]c4ccccc34)nc2c1 [Example 45, 2-(1H-Indazol-3-yl)-1H-benzoimidazole-5-carboxylic acid 2-methyl-benzylamide] | < 300
10 | Cc1ccsc1CNC(=O)c1ccc2[nH]c(-c3n[nH]c4ccccc34)nc2c1 [Example 46, 2-(1H-Indazol-3-yl)-1H-benzoimidazole-5-carboxylic acid (3-methyl-thiophen-2-ylmethyl)-amide] | 300 to 3000
11 | O=C(NCc1ccccc1C(F)(F)F)c1ccc2[nH]c(-c3n[nH]c4ccccc34)nc2c1 [Example 47, 2-(1H-Indazol-3-yl)-1H-benzoimidazole-5-carboxylic acid 2-trifluoromethyl-benzylamide] | 300 to 3000
12 | O=C(NCc1ccc(Oc2ccccc2)cc1)c1ccc2[nH]c(-c3n[nH]c4ccccc34)nc2c1 [Example 48, 2-(1H-Indazol-3-yl)-1H-benzoimidazole-5-carboxylic acid 4-phenoxy-benzylamide] | 300 to 3000
13 | Cn1cc(CNC(=O)c2ccc3[nH]c(-c4n[nH]c5ccccc45)nc3c2)cn1 [Example 51, 2-(1H-Indazol-3-yl)-1H-benzoimidazole-5-carboxylic acid (1-methyl-1H-pyrazol-4-ylmethyl)-amide] | 300 to 3000
14 | CC(C)c1ccc(CNC(=O)c2ccc3[nH]c(-c4n[nH]c5ccccc45)nc3c2)cc1 [Example 52, 2-(1H-Indazol-3-yl)-1H-benzoimidazole-5-carboxylic acid 4-isopropyl-benzylamide] | 300 to 3000
15 | O=C(NCc1cc2ccccc2s1)c1ccc2[nH]c(-c3n[nH]c4ccccc34)nc2c1 [Example 54, 2-(1H-Indazol-3-yl)-1H-benzoimidazole-5-carboxylic acid (benzo[b]thiophen-2-ylmethyl)-amide] | 300 to 3000
